Test results reported in US7115545B1, “Tricyclic benzoylpyrazole derivatives used as a herbicide” (BASF Aktiengesellschaft, priority 1999, dated 2006).

Legend:
Veronica ssp. = test: greenhouse post-emergence herbicidal test; format: in vivo; details: post-emergence method, application rates of 0.5 or 0.25 kg/ha
Source text: (§1) The seeds of the test plants were sown separately for each species. For post-emergence treatment, the test plants were first grown to a plant height of from 3 to 15 cm, depending on the plant habit, and only then treated with the active compounds which had been suspended or emulsified in water. For this purpose, the test plants were either sown directly and grown in the same containers, or they were first grown separately as seedlings and transplanted into the test containers a few days prior to the treatment. The application rate for the post-emergence treatment was 0.5 or 0.25 kg of a.s./ha. Depending on the species, the plants were kept at 10–25° C. or 20–35° C. The test period extended over 2 to 4 weeks. During this time, the plants were tended, and their response to the individual treatments was evaluated. Evaluation was carried out using a scale from 0 to 100. 100 means no emergence of the plants, or complete destruction of at least the above-ground parts, and 0 means no damage, or normal course of growth. The plants used in the greenhouse trials were of the following species: [table]

Setaria viridis = test: greenhouse post-emergence herbicidal test; format: in vivo; details: post-emergence method, application rates of 0.5 or 0.25 kg/ha, Setaria viridis (green foxtail)
Source text: as §1

Chenopodium album = test: greenhouse post-emergence herbicidal test; format: in vivo; details: post-emergence method, application rates of 0.5 or 0.25 kg/ha, Chenopodium album (lambsquarters)
Source text: as §1

Echinochloa crusgalli = test: greenhouse post-emergence herbicidal test; format: in vivo; details: post-emergence method, application rates of 0.5 or 0.25 kg/ha, Echinochloa crusgalli (barnyardgrass)
Source text: as §1

Solanum nigrum = test: greenhouse post-emergence herbicidal test; format: in vivo; details: post-emergence method, application rates of 0.5 or 0.25 kg/ha, Solanum nigrum (black nightshade)
Source text: as §1

For `Cn1ncc(C(=O)c2ccc(S(C)(=O)=O)c3c2CC2CON=C32)c1OC(=O)c1ccccc1` (stereo not drawn) [compound 2.2, (5-Phenylcarbonyloxy-1-methyl-1H-pyrazol-4-yl)-(8-methyl-sulfonyl-3a,4-dihydro-3H-indeno[1,2-c]isoxazol-5-yl)methanone], the herbicidal activity (Veronica ssp.) was “very good activity”, the herbicidal activity (Setaria viridis) was “very good activity” and the herbicidal activity (Chenopodium album) was “very good activity”. For the same compound, the herbicidal activity (Echinochloa crusgalli) was “very good activity”, the herbicidal activity (Solanum nigrum) was “very good activity” and the melting point was 86 to 93 °C.
